Laboratory results from patent US11279695B2, “Andrographolide compound and method for treatment or prevention of fibrotic disease using the same” (Zhengzhou University, priority 2018, dated 2022).

Key:
[1] = test system: human renal proximal tubule epithelial cells HK-2; assay: In vitro cytotoxicity MTT assay on HK-2 cells; type: cell-based; details: 48 h, 30.00 μM equivalent dose, FIGS. 6A-6B
Protocol: HK-2 cells were cultured in a DMEM/F12 medium containing 10% (V/V) fetal bovine serum (FBS), 100 μg/mL streptomycin, and 100 IU/mL penicillin, followed by incubation at 37° C. in a humidified atmosphere with 5% CO2.
HK-2 cells in the logarithmic growth phase were digested with 0.25% (W/V) trypsin and 0.02% EDTA (W/V), diluted into 7.0×10^4 cell/mL cell suspension with DMEM/F12 medium containing 10% (V/V) FBS, and transferred into a 96-well plate for 200 μL per well. After incubation in the 37° C. incubator with 5% CO2 for 24 hours, the medium comprising different concentration of test compounds were added into the wells. Under these conditions, the maximum final drug concentration in the assay was 30.00 μM. The experiment was performed in triplicate. After further incubation for 48 hours, other steps were the same as Example 1.

[2] = test system: hepatic fibrosis in KM mice induced by bile duct ligation (BDL); assay: Hepatic fibrosis in KM mice induced by bile duct ligation (BDL); type: in vivo; details: 10 days, scale 0-6
Protocol: SPF grade KM mice, healthy, male, with a body weight of 20±2 g, were purchased from Henan Experimental Animal Center. (License No. SOCK (Yu) 2017-0001).
After KM mice were fed ad libitum for 3 days, they were randomly divided into multiple groups including a sham-operated control group, a model group, an AD control group, and different compound-administered groups, six mice per group. The sham operation group and the model group were administered with 0.5% Sodium CMC (Na CMC) via gavage, and the other administration groups were administered 0.5% CMC-Na suspension of the corresponding drug, and the administration lasted for 10 days. Mice should be strictly fasting with nothing but water 12 hours prior to surgery. The mice were anesthesia by intraperitoneally injecting with 0.5% sodium pentobarbital. After limb immobilization in a supine position, the anesthetized mice were prepared. The abdomen of the mice was shaved and then swabbed with iodine to sterilize the skin regions. After spreading of surgery cloth, the abdomen was opened along the abdominal wall in the midline. The duodenum was found along the stomach, then pull upwards to just separate from the common bile duct. Double-ligated with 4/0 silk thread and disconnected the common bile duct with a distance of 0.5 cm away from the hepatic hilum. Following the examination for no bleeding and bile leakage, the 3/0 silk thread continuous suture method was used to close the abdomen layer by layer. The wound was swabbed with iodine, and the mice rest in a 37° C. warm environment until the animals were fully awake. […] Drugs were administrated by gavage on an empty stomach in the morning every day, and were given daily for 10 days. The liver was quickly excised after blood collection. The collected blood was allowed to stand in an incubator 37° C. for 45 min, and then the upper serum was collected by centrifugation at 3500 rpm for 15 min at 4° C. The liver of the lower left lobe of the mice was fixed in 10 times volume of 4% paraformaldehyde fixative, and the fixative was changed after 24 h. Pathological sections were obtained after fixation. Each section was stained with hematoxylin-eosin stain (HE) and Sirius red to observe fibrosis levels and pathological change in the liver. […] Collagen deposition was measured with Sirius red staining, and positive expression was semi-quantitatively analyzed by Image-Pro Plus. […]

[3] = test system: silica-induced pulmonary fibrosis in KM mice; assay: Silica-induced pulmonary fibrosis in KM mice; type: in vivo; details: AD at equivalent dose (40 or 120 mg/kg) ig 21 days
Protocol: SPF grade KM mice, healthy, male, with a body weight of 20±2 g, were purchased from Henan Experimental Animal Center. (License No. SOCK (Yu) 2017-0001). Silica was heated at 250° C. for 1 hour to remove endotoxin. After autoclaving the heated silica was suspended in physiological saline to yield a final concentration of 75 mg/mL suspension, and stored at 4° C. for use. The suspension was shaken and sonicated for 30 minutes prior to injection.
After mice were fed ad libitum for 3 days, they were randomly divided into six groups including a sham-operated control group, a model group, different groups of the compounds of the disclosure, eight mice per group. The mice were anesthetized with intraperitoneal injection of 0.5% sodium pentobarbital (50 mg/kg). After the immobilization in a supine position, the anesthetized mice were prepared. The neck of the mice was shaved and then swabbed with iodine to sterilize the skin regions. An incision with a length of about 1 cm was made along the neck for separating bronchus. A silica suspension proportional (150 mg/kg) to the body weight, and 100 μL of air was immediately injected into the trachea through the cartilage space of mice. After the muscle was reset, the mice were quickly rotated for 2 minutes to evenly distribute the silica. […] Mice lung was collected, weighed and the pulmonary lesion was measured. […]

[4] = 15 mg/kg ig, model group mean score 4.25

Row | SMILES | inhibitory effect on proliferation of HK-2 cells compared with AD [1] | also measured
1 | COc1ccc(C=C2C=C(C=CC3C(C)=CCC4C(C)(CO)C(O)CCC34C)C(=O)O2)cc1 (centres unmarked) [ADC-11] | higher inhibitory effect on proliferation of HK-2 cells than the parent compound AD | 
2 | CC12CCC3C(CCC(O)C3(C)CO)C1CC(C1=CC(=Cc3ccc(F)c(F)c3)OC1=O)O2 (centres unmarked) [ADY-6] | higher inhibitory effect on proliferation of HK-2 cells than the parent compound AD | 
3 | CC12CCC3C(CCC(O)C3(C)CO)C1CC(C1=CC(=Cc3ccc(O)cc3)OC1=O)O2 (centres unmarked) [ADY-8] | higher inhibitory effect on proliferation of HK-2 cells than the parent compound AD | 
4 | COc1cccc(C=C2C=C(C3CC4C5CCC(O)C(C)(CO)C5CCC4(C)O3)C(=O)O2)c1 (centres unmarked) [ADY-7] |  | fibrosis pathological score for liver tissue section (mean) [2, 4]: 0.4
5 | CC1=CCC2C(C)(CO)C(O)CCC2(C)C1C=CC1=CC(=Cc2ccc(F)c(F)c2)OC1=O (centres unmarked) [ADC-6] | higher inhibitory effect on proliferation of HK-2 cells than the parent compound AD | 
6 | CC12CCC3C(CCC(O)C3(C)CO)C1CC(C1=CC(=Cc3ccccc3)OC1=O)O2 (centres unmarked) [ADY-5] | higher inhibitory effect on proliferation of HK-2 cells than the parent compound AD | 
7 | COc1ccc(C=C2C=C(C3CC4C5CCC(O)C(C)(CO)C5CCC4(C)O3)C(=O)O2)cc1 (centres unmarked) [ADY-12] |  | fibrosis pathological score for liver tissue section (mean) [2, 4]: 1.4
8 | CC1=CCC2C(C)(CO)C(O)CCC2(C)C1C=CC1=CC(=Cc2ccccc2O)OC1=O (centres unmarked) [ADC-12] | higher inhibitory effect on proliferation of HK-2 cells than the parent compound AD | 
9 | CC1=CCC2C(C)(CO)C(O)CCC2(C)C1C=CC1=CC(=Cc2ccc(F)cc2)OC1=O (centres unmarked) [ADC-5] | higher inhibitory effect on proliferation of HK-2 cells than the parent compound AD | 
10 | CC12CCC3C(CCC(O)C3(C)CO)C1CC(C1=CC(=Cc3ccc(Br)cc3)OC1=O)O2 (centres unmarked) [ADY-2] | higher inhibitory effect on proliferation of HK-2 cells than the parent compound AD | 
11 | C=C1CC[C@@H]2[C@](C)(CO)[C@H](O)CC[C@@]2(C)[C@@H]1C/C=C1/C(=O)OC[C@H]1O [AD, andrographolide] | lower inhibitory activity against the cell proliferation | fibrosis pathological score for liver tissue section (mean) ([2]; 15 mg/kg ig, model group mean score 4.8): 2.83; fibrosis pathological score for liver tissue section (mean) ([2]; 40 mg/kg ig, model group mean score 4.8): 2.10; pulmonary fibrosis score [3]: 3.8-4.9
